From publication PMC10906223 (JCI Insight, 2024)
Where “and” joins values, the source holds several entries; their conditions need not be identical. Equal values may be shown once.

Key:
[1] = tested on: murine dispersed islet cells; assay: Glucagon secretion from murine dispersed islet cells; format: cell-based, mouse; details: for Secretion of glucagon: Rhy (2.5 µM) alone, listed as Rhy
Method: (§1) Pancreata of nondiabetic C57BL/6J mice were digested using collagenase P (Roche Diagnostics, catalog 11213873001), and islets were manually picked up using a stereomicroscope (ZEISS Stemi 305). […] Isolated mouse islets or provided human islets were dispersed as described ([28]). Briefly, 100–120 islets were washed 2 times using modified HBSS, then dispersed in 600 μL Accutase (Innovative Cell Technologies, catalog AT-104) by gently pipetting up and down for 7 minutes at 37°C. […] Following refreshing of KRBH, cells were dispensed in 8 microfuge tubes (2,000 cells/tube) and treated with WCDD301, preclustered Ephrin-A5 Fc, or preclustered Fc in the presence or absence of the competitive inhibitor of EphA4 receptor, rhyncophylline ([60]) (MilliporeSigma, catalog SML2345). In the presence or absence of these effectors, secretion assay was performed sequentially as shown in Supplemental Table 5. […] Preclustering of Ephrin-A5 Fc was done by mixing Ephrin-A5 Fc or Fc alone (BioLegend, catalog 790102) with anti-Fc antibody (Invitrogen, catalog A16086) (1:10 molar ratio) 20 minutes before treatment ([62]). […] Shedding of cleaved EphA4 was measured from the cell culture medium. Experiments were performed by dispersion of 200 islets, and EphA4 levels in media were measured by EphA4 ELISA (ABclonal, catalog RK06572).

[2] = Microsomal stability assay, CD-1 mouse liver microsomes; format: in vitro ADME; details: for Remaining in hepatic microsomes (100 at 0 min): mouse microsomes, Figure 5D; for Hepatic clearance: mouse, predicted from microsomal data
Method: (§2) A total of 445 μL of the working solution was transferred into prewarmed incubation plates for treated (T60) and control (NCF60) measurements. After preincubation (10 minutes at 37°C with constant shaking), 54 μL was transferred to the blank plate, followed by 6 μL of NADPH and 180 μL quenching solution. In parallel, 5 μL of WCDD301 (100 μM) was added into incubation plates (T60 and NCF60) containing microsomes and mixed thoroughly (3 times). For the NCF60 plate, 50 μL of buffer was added, mixed (thoroughly, 3 times), shaken, and incubated at 37°C for 60 minutes. In the quenching plate T0, quenching solution (180 μL) and NADPH cofactor (6 μL) were added. For T60 plate, 54 μL of the mixture was placed into the quenching plate (for T0 point), followed by adding 44 μL NADPH cofactor with shaking incubation at 37°C for 60 minutes. Quenching solution (180 μL) was added to quenching plates at 5, 15, 30, 45, and 60 minutes, and 60 μL of sample was transferred from T60 plate per time point to the quenching plates. For the NCF60 plates, 60 μL sample from the NCF60 incubation plate was transferred to the quenching plate (containing quenching solution) at the 60-minute time point. After plates were shaken for 10 minutes and centrifuged (1,750g, 20 minutes at 4°C), 80 μL of the supernatant was transferred into 240 μL HPLC water for LC-MS/MS analysis. The following first-order kinetic equation was used to calculate half-life (T1/2): [drawing 3]; when
(§3) Then, intrinsic clearance [CLint (microsomal; mic)] and hepatic clearance [CLint (liver)] were predicted using the following equations ([66]): […]

[3] = Microsomal stability assay, human liver microsomes; format: in vitro ADME; details: for Remaining in hepatic microsomes (100 at 0 min): human microsomes, Figure 5C; for Hepatic clearance: predicted from microsomal data
Method: as §2, §3

[4] = tested on: human donor dispersed islet cells; assay: Glucagon secretion from healthy human donor dispersed islet cells; format: cell-based; details: human α cells; range of concentrations; Supplemental Figure 1A
Method: as §1
The Integrated Islet Distribution Program provided us human donor islets with their characteristics (Supplemental Table 6). Islets were centrifuged at 500g for 3 minutes, resuspended in CMRL 1066 medium (Gibco, catalog 1150-037) containing 11 mM glucose, and rested in an incubator overnight.
For the hormone secretion assay, islets or dispersed islet cells were adapted in KRBH buffer containing 11 mM glucose for 1 hour. Then, after 2 washes in HBSS containing 11 mM glucose, islets or cells were treated in the following sequential order in the presence or absence of WCDD301: incubation in KRBH (1 mM glucose, 30 minutes) followed by medium collection, incubation in KRBH (11 mM glucose, 30 minutes) followed by medium collection.

[5] = Plasma stability assay, human plasma; format: in vitro ADME; details: for Ln (% Remaining): human plasma, 37°C, Figure 5A
Method: (§4) Pooled frozen plasma of CD-1 mice (n = 20; catalog MSE00PLK2M2N, Beijing Vital River Laboratory Animal Technology) or humans (n = 6, catalog […]2P2N, Bioreclamation IVT), equal numbers of males and females, was thawed in a 37°C water bath, and residual clots were removed by centrifugation (500g for 5 minutes). Plasma (98 μL) was aliquoted in each well of 96-well reaction plates using an Apricot automation workstation. WCDD301 (100 μM) or propantheline bromide (100 μM, as a positive control) was added (2 μL/well) to sets of wells assigned to blank or time points (T0, T10, T30, T60, and T120 minutes) and incubated at 37°C. At each time point, the reaction was stopped by adding stop solution (500 μL; a mixture of 200 ng/mL of tolbutamide and labetalol in acetonitrile), mixed thoroughly, sealed, shaken (20 minutes), and centrifuged (1,750g, 4°C, 20 minutes). A total of 150 μL of the supernatant from each well of the reaction plate was transferred to its corresponding bioanalysis plate for LC-MS/MS analysis. The remaining level (%) of the WCDD301 was calculated using the following equation: remaining (%) = (PAR at each time point/PAR at T0) × 100. PAR stands for the peak area ratio of the WCDD301 versus internal standard.

[6] = Plasma stability assay, CD-1 mouse plasma; format: in vitro ADME; details: for Ln (% Remaining): mouse plasma, 37°C, Figure 5B
Method: as §4

N=C(N)NCCC[C@H](N)C(=O)O [Arginine, reference compound]
Effect on glucagon secretion ([1]; Arginine 25 mM alone, Supplemental Figure 2): significantly increased glucagon secretion

O=C(O)Cc1ccccc1Nc1c(Cl)cccc1Cl [Diclofenac]
Remaining in hepatic microsomes (100 at 0 min) ([2]; 5 min): 85.5 | Remaining in hepatic microsomes (100 at 0 min) ([2]; 15 min): 77.8 | Remaining in hepatic microsomes (100 at 0 min) ([2]; 30 min): 58.6 | Remaining in hepatic microsomes (100 at 0 min) ([2]; 45 min): 52.8 | Remaining in hepatic microsomes (100 at 0 min) ([2]; 60 min): 39.3 | Hepatic clearance [2]: 115.5 mL/min/kg | Intrinsic microsomal clearance ([3]; human): 313.9 µL/min/mg | Remaining in hepatic microsomes (100 at 0 min) ([3]; 5 min): 48.7 | Remaining in hepatic microsomes (100 at 0 min) ([3]; 15 min): 9.3 | Remaining in hepatic microsomes (100 at 0 min) ([3]; 30 min): 0.9 | half-life at 1 µM ([3]; human, liver microsomes): 4.4 min | Hepatic clearance ([3]; human): 282.5 mL/min/kg

COc1cc2nc(N3CCN(C(=O)C4COc5ccccc5O4)CC3)nc(N)c2cc1OC (centres unmarked) [Doxazosin, reference compound]
Effect on glucagon secretion ([1]; mouse α cells, range of concentrations, Supplemental Figure 1B-E): increased glucagon secretion | Effect on glucagon secretion [4]: increased glucagon secretion

CC(C)[N+](C)(CCOC(=O)C1c2ccccc2Oc2ccccc21)C(C)C [Propantheline, propantheline bromide]
half-life at 2 µM ([5]; both sexes, human, plasma): 9.8 min | Ln (% Remaining) ([5]; 10 min): -0.39 | Ln (% Remaining) ([5]; 30 min): -2.06 | Ln (% Remaining) ([5]; 60 min): -4.13 | half-life at 2 µM ([6]; both sexes, CD-1, mouse, plasma): 34.3 min | Ln (% Remaining) ([6]; 10 min): -0.31 | Ln (% Remaining) ([6]; 30 min): -0.9 | Ln (% Remaining) ([6]; 60 min): -1.58 | Ln (% Remaining) ([6]; 120 min): -2.45

C[C@]12CC[C@H]3[C@@H](CCC4=CC(=O)CC[C@@]43C)[C@@H]1CC[C@@H]2O [Testosterone]
half-life at 1 µM ([2]; CD-1, mouse, liver microsomes): 5.4 min | microsomal CLint at 1 µM ([2]; CD-1, mouse, liver microsomes, read-out: Intrinsic microsomal clearance): 257 µL/min/mg | Remaining in hepatic microsomes (100 at 0 min) ([2]; 5 min): 43.1 | Remaining in hepatic microsomes (100 at 0 min) ([2]; 15 min): 11.2 | Remaining in hepatic microsomes (100 at 0 min) ([2]; 30 min): 2 | Hepatic clearance [2]: 1018.5 mL/min/kg | Intrinsic microsomal clearance ([3]; human): 95.6 µL/min/mg | Microsomal half-life ([3]; human): 14.5 min | Remaining in hepatic microsomes (100 at 0 min) ([3]; 5 min): 78.1 | Remaining in hepatic microsomes (100 at 0 min) ([3]; 15 min): 33 | Remaining in hepatic microsomes (100 at 0 min) ([3]; 30 min): 12.9 | Remaining in hepatic microsomes (100 at 0 min) ([3]; 45 min): 8.4 | Remaining in hepatic microsomes (100 at 0 min) ([3]; 60 min): 6.4 | Hepatic clearance ([3]; human): 86 mL/min/kg

CC[C@H]1CN2CC[C@]3(C(=O)Nc4ccccc43)[C@@H]2C[C@@H]1/C(=C\OC)C(=O)OC [rhyncophylline, reference compound]
Secretion of glucagon ([1]; Glucose (1 mM), Figure 1H): 0.87 and 0.81 and 0.85 and 0.79 and 0.82 | Secretion of glucagon ([1]; Glucose (11 mM), Figure 1H): 0.41 and 0.5 and 0.38 and 0.45 and 0.4 | Effect of EphA4 inhibition on suppression of glucagon secretion ([1]; competitive inhibitor of EphA4, Figure 1H): abolished the suppressive effect of both Ephrin-A5 and 1.5 μM WCDD301 on glucagon secretion
